Results reported in US10118955B2, “C-terminal fragments of glucagon-like peptide-1 (GLP-1)” (The General Hospital Corporation, priority 2008, dated 2018).
Ends that are not written are not given here.

Columns and labels:
GLP-1 GPCR = GLP-1 GPCR (Homo sapiens, UniProt P43220); conditions: (nM); cited from earlier work
white adipocytes = conditions: Rodrigue-Way et al. 2007; cited from earlier work
ACOX mRNA = assay: liver mRNA levels by QPCR in mice infused with GLP-1(28-36)amide; type: in vivo; conditions: 28-36 infusion 3 weeks; for ACOX mRNA/QPCR Fold Difference compared to LFD: normalized to LFD mice as 1.0, parentheses = down-regulation
Description: (§1) Mice were placed on VHFD or a LFD control diets at 6 weeks of age. Continuous infusion of GLP-1(28-36)amide, 6.5 nanomoles/24 hrs/KgBW via osmopumps was started at ten weeks of age and was continued for 3 weeks. Body weights were measured before and during these three weeks. Values are means and S.D.s of four mice in each group.
(§2) An examination of gene expression profiles in the livers of GLP-1(28-36)amide treated mice was performed. Measurements of mRNA levels by quantitative polymerase chain reaction (QPCR) in livers of mice given a very high fat diet (VHFD) or a normal low fat diet (LFD) for four weeks followed by subcutaneous osmopump infusions of either vehicle or GLP-1(28-36)amide for three additional weeks. Data in Table 2, below, show changes in mRNA levels in LFD and VHFD groups of mice comparing vehicle versus GLP-1(28-36)amide where vehicle is set at a value of 1.0. […] GLP-1(28-36)amide appears to regulate PEPCK, PPARg, CD36, SCD1, SREBP1c, FASN, and PPARa.

CD36 mRNA = assay: as above; type: in vivo; conditions: 28-36 infusion 3 weeks; for CD36 mRNA/QPCR Fold Difference compared to LFD: normalized to LFD mice as 1.0, parentheses = down-regulation
Description: as §1, §2

CPT1 mRNA = assay: as above; type: in vivo; conditions: 28-36 infusion 3 weeks; for CPT1 mRNA/QPCR Fold Difference compared to LFD: normalized to LFD mice as 1.0, parentheses = down-regulation
Description: as §1, §2

FASN mRNA = assay: as above; type: in vivo; conditions: 28-36 infusion 3 weeks
Description: as §1, §2

[1] = test system: PEPCK (phosphopyruvate carboxykinase) mRNA; assay: as above; type: in vivo; conditions: 28-36 infusion 3 weeks; for PEPCK mRNA/QPCR Fold Difference compared to LFD: normalized to LFD mice as 1.0, parentheses = down-regulation
Description: as §1, §2

PGC1α mRNA = assay: as above; type: in vivo; conditions: 28-36 infusion 3 weeks
Description: as §1, §2

PPARα mRNA = assay: as above; type: in vivo; conditions: 28-36 infusion 3 weeks; for PPARα mRNA/QPCR Fold Difference compared to LFD: normalized to LFD mice as 1.0, parentheses = down-regulation
Description: as §1, §2

PPARγ mRNA = assay: as above; type: in vivo; conditions: 28-36 infusion 3 weeks; for PPARγ mRNA/QPCR Fold Difference compared to LFD: normalized to LFD mice as 1.0, parentheses = down-regulation
Description: as §1, §2

SCD-1 mRNA = assay: as above; type: in vivo
Description: as §1, §2

SREBP-1c mRNA = assay: as above; type: in vivo; conditions: 28-36 infusion 3 weeks; for SREBP-1c mRNA/QPCR Fold Difference compared to LFD: normalized to LFD mice as 1.0, parentheses = down-regulation
Description: as §1, §2

[2] = infusion in mice fed a very high fat diet: body weight, adipogenesis, food intake; type: in vivo; conditions: for weight gain: mice on VHFD (60% fat), continuous infusion 6.5 nanomoles/24 hrs/KgBW via osmopumps, 3 weeks
Description: as §1
Glucagon-like peptide-1 (GLP-1) is an insulinotropic peptide that stimulates glucose-dependent insulin secretion (Kieffer and Habener, Endocr Rev. 20(6):876-913 (1999)). […] The neutral endopeptidase, NEP 24.11 is proposed to be responsible for the degradation of GLP-1, much as the Dpp4 had been thought of as a peptide degrading enzyme for GLP-1 (Plamboeck et al., Diabetologia. 48(9):1882-90 (2005)). The carboxyl-terminal sequence of GLP-1, […]amide, GLP-1(28-36)amide, is a major peptide product of the cleavage of GLP-1 by NEP 24.11 (Hupe-Sodmann et al., Regul Pept. 58(3):149-56 (1995)). Therefore GLP-1(28-36)amide was infused into mice both fed a normal chow diet (LFD) and a very high fat diet (VHFD) for three weeks.

[3] = test system: phosphoACC (pACC, phospho-AcetylCoA carboxylase); assay: liver ACC / phosphoACC protein expression after infusion; type: in vivo; conditions: mice fed a very high fat diet, infusion for three weeks
Source text: FIGS. 4A-4C are bar graphs showing regulation of PEPCK (4A) and ACC Protein Expression (both the phosphorylated (pACC) and unphosphorylated (ACC) forms (4B) in the presence and absence of the GLP-1(28-36) peptide, as well as the effect of the peptide on ratios of phosphorylated to unphosphorylated ACC (4C).
This is important since ACC is highly regulated in the liver and is the key enzyme responsible for the synthesis of malonyl CoA from AcetylCoA and is a precursor of fatty acid synthesis and a potent inhibitor of CPT1 (carnitine palmitoyl transferase 1), the rate limiting enzyme in the transport of fatty acids into the beta oxidation machinery of mitochondria. This means that GLP-1(28-36) is exerting an inhibition on fatty acid oxidation (beta oxidation). The increase in SCD1 expression in response to infusion of GLP-1(28-36)amide is consistent with an increase in ACC activity since SCD1 is believed to inhibit AMP kinase which is an inhibitor of ACC. The mechanism currently proposed for the prevention of weight gain by GLP-1(28-36)amide in mice fed a very high fat diet involves a dual effect of GLP-1(28-36)amide on adipose tissue to enhance lipolysis and fat burning and inhibit lipogenesis. The increased fatty acid cycling and hypertriglyceridemia enhances hepatic fatty acid oxidation with consequent coupled enhanced gluconeogenesis driven by the enhanced fat burning. […]

3T3-L1 adipocytes = assay: lipolysis (glycerol release) in 3T3-L1 adipocytes; type: cell-based; conditions: 1-30 nM on a background of 10 nM isoproterenol, 60 min
Description: Preliminary studies on the effect of GLP-1(9-36) on lipolysis were also performed in isolated mouse hepatocytes and 3T3-L1 adipocytes. Glycerol release into the culture medium was used as a measure of active lipolysis, and isoproterenol serves as a known stimulator of lipolysis. In these experiments GLP-1(9-36)amide was added dose-wise (1-30 nM) on a background of 10 nM isoproterenol. Incubations were for 60 min.

isolated hepatocytes = assay: hepatic gluconeogenesis in isolated hepatocytes (preliminary studies); type: cell-based; conditions: high (micromolar) concentrations
[4] = test system: hepatic glucose production (gluconeogenesis); conditions: Elahi et al. 2008; cited from earlier work
[5] = Ban et al. 2008; cited from earlier work
[6] = LFD mice, vehicle set at 1.0, parentheses = down-regulation
[7] = VHFD mice, VHFD vehicle set at 1.0, parentheses = down-regulation
[8] = LFD mice, normalized to LFD mice as 1.0, parentheses = down-regulation
[9] = high fat fed mice, infusion for three weeks

Sequence of GLP-1 GPCR (P43220 24-463): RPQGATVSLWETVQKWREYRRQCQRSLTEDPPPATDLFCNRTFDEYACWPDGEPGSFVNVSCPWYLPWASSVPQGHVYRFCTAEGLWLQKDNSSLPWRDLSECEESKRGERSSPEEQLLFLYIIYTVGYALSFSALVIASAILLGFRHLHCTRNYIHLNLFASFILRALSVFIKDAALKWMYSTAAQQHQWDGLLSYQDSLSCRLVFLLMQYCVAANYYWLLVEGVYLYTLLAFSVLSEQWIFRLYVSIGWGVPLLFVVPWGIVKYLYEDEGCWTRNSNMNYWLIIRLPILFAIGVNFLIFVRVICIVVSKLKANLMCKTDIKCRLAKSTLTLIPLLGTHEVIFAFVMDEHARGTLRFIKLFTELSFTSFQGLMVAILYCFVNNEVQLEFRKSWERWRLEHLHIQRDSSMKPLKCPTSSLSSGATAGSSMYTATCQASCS

exendin-4
binding affinity to the GLP-1 GPCR (GLP-1 GPCR): high affinity

Cc1[nH]c2ccccc2c1C[C@@H](NC(=O)[C@@H](N)Cc1cnc[nH]1)C(=O)N[C@@H](C)C(=O)N[C@@H](Cc1c[nH]c2ccccc12)C(=O)N[C@H](Cc1ccccc1)C(=O)N[C@@H](CCCCN)C(N)=O [hexarelin, H-W(Me)-A-W-F-Kamide]
mitochondrial biogenesis and fat burning phenotype (white adipocytes): promote mitochondrial biogenesis and a fat burning phenotype

FIAWLVKGR-NH2 [28-36]
ACOX mRNA/QPCR Fold Difference compared to LFD (ACOX mRNA; LFD mice): 1.4 fold
ACOX mRNA/QPCR Fold Difference compared to PEPTIDE (28-36) (ACOX mRNA; [6]): 1.4 fold
ACOX mRNA/QPCR Fold Difference compared to PEPTIDE (28-36) (ACOX mRNA; [7]): 1.04 fold
ACOX mRNA/QPCR Fold Difference compared to LFD (ACOX mRNA; VHFD mice): 1.2 fold
CD36 mRNA/QPCR Fold Difference compared to LFD (CD36 mRNA; LFD mice): 1.25 fold
CD36 mRNA/QPCR Fold Difference compared to PEPTIDE (28-36) (CD36 mRNA; [6]): 1.25 fold
CD36 mRNA/QPCR Fold Difference compared to PEPTIDE (28-36) (CD36 mRNA; [7]): 1.7 fold
CD36 mRNA/QPCR Fold Difference compared to LFD (CD36 mRNA; VHFD mice): 1.7 fold
CPT1 mRNA/QPCR Fold Difference compared to LFD (CPT1 mRNA; LFD mice): 1.2 fold
CPT1 mRNA/QPCR Fold Difference compared to PEPTIDE (28-36) (CPT1 mRNA; [6]): 1.21 fold
CPT1 mRNA/QPCR Fold Difference compared to PEPTIDE (28-36) (CPT1 mRNA; [7]): 1.02 fold
CPT1 mRNA/QPCR Fold Difference compared to LFD (CPT1 mRNA; VHFD mice): 1.74 fold
FASN mRNA/QPCR Fold Difference compared to LFD (FASN mRNA; [8]): 1 fold
FASN mRNA/QPCR Fold Difference compared to PEPTIDE (28-36) (FASN mRNA; [6]): 1 fold
FASN mRNA/QPCR Fold Difference compared to PEPTIDE (28-36) (FASN mRNA; [7]): 1.2 fold
PEPCK mRNA/QPCR Fold Difference compared to LFD ([1]; LFD mice): 1.6 fold
PEPCK mRNA/QPCR Fold Difference compared to PEPTIDE (28-36) [1, 6]: 1.6 fold
PEPCK mRNA/QPCR Fold Difference compared to PEPTIDE (28-36) [1, 7]: 1.5 fold
PEPCK mRNA/QPCR Fold Difference compared to LFD ([1]; VHFD mice): 1.6 fold
PGC1α mRNA/QPCR Fold Difference compared to LFD (PGC1α mRNA; [8]): 1.35 fold
PGC1α mRNA/QPCR Fold Difference compared to PEPTIDE (28-36) (PGC1α mRNA; [6]): 1.4 fold
PGC1α mRNA/QPCR Fold Difference compared to PEPTIDE (28-36) (PGC1α mRNA; [7]): 1.2 fold
PPARα mRNA/QPCR Fold Difference compared to LFD (PPARα mRNA; LFD mice): 1.2 fold
PPARα mRNA/QPCR Fold Difference compared to PEPTIDE (28-36) (PPARα mRNA; [6]): 1.2 fold
PPARα mRNA/QPCR Fold Difference compared to PEPTIDE (28-36) (PPARα mRNA; [7]): 1.35 fold
PPARα mRNA/QPCR Fold Difference compared to LFD (PPARα mRNA; VHFD mice): 1.9 fold
PPARγ mRNA/QPCR Fold Difference compared to LFD (PPARγ mRNA; LFD mice): 1.54 fold
PPARγ mRNA/QPCR Fold Difference compared to PEPTIDE (28-36) (PPARγ mRNA; [6]): 1.54 fold
PPARγ mRNA/QPCR Fold Difference compared to PEPTIDE (28-36) (PPARγ mRNA; [7]): 1.4 fold
PPARγ mRNA/QPCR Fold Difference compared to LFD (PPARγ mRNA; VHFD mice): 2.2 fold
SCD1 expression (SCD-1 mRNA; in response to infusion of GLP-1(28-36)amide): increase
SCD-1 mRNA/QPCR Fold Difference compared to PEPTIDE (28-36) (SCD-1 mRNA; liver, VHFD mice, 28-36 infusion 3 weeks, VHFD vehicle set at 1.0, parentheses = down-regulation): 3.05 fold
SREBP-1c mRNA/QPCR Fold Difference compared to LFD (SREBP-1c mRNA; LFD mice): 1 fold
SREBP-1c mRNA/QPCR Fold Difference compared to PEPTIDE (28-36) (SREBP-1c mRNA; [6]): 1.1 fold
SREBP-1c mRNA/QPCR Fold Difference compared to PEPTIDE (28-36) (SREBP-1c mRNA; [7]): 1.3 fold
SREBP-1c mRNA/QPCR Fold Difference compared to LFD (SREBP-1c mRNA; VHFD mice): 1 fold
adipogenesis [2, 9]: completely prevented
food intake [2, 9]: without observable differences
weight gain ([2]; listed as GLP-1(28-36)): attenuates weight gain
weight gain ([2]; listed as GLP-1(28-36)amide): completely prevented
liver phosphoACC (pACC) [3]: decrease

GLP-1(9-36)amide
lipolysis (glycerol release into the culture medium) (3T3-L1 adipocytes): stimulates lipolysis in 3T3-L1 adipocytes in a dose dependent manner
actions on hepatic gluconeogenesis (isolated hepatocytes): only weak actions
hepatic glucose production (gluconeogenesis) [4]: inhibits
cardioprotective actions [5]: exerts cardioprotective actions
